Measurements published in the NIST ThermoML archive (doi:10.1016/j.jct.2016.03.030).
± gives the expanded uncertainty stated by the source.

Experiment: molar heat capacity at constant pressure; xn = mol fraction of the nth substance listed
Details: 100 kPa, Liquid, Small sample (50 mg) DSC

CCCCC[N+]1(C)CCOCC1.[Br-] [4-methyl-4-pentylmorpholinium bromide] + O
molar heat capacity at constant pressure [J/K/mol]
Details | 298.15 K | 303.15 K | 308.15 K | 313.15 K | 318.15 K | 323.15 K | 328.15 K | 333.15 K | 338.15 K | 343.15 K
x1 = 0.0316 | 94.11 ± 9.5 | 94.16 ± 9.5 | 94.44 ± 9.5 | 94.72 ± 9.6 | 94.98 ± 9.6 | 95.31 ± 9.6 | 95.54 ± 9.7 | 95.76 ± 9.7 | 95.94 ± 9.7 | 96.1 ± 9.7
x1 = 0.0695 | 105.99 ± 11 | 106.33 ± 11 | 106.88 ± 11 | 107.4 ± 11 | 107.91 ± 11 | 108.43 ± 11 | 108.87 ± 11 | 109.28 ± 11 | 109.73 ± 11 | 110.14 ± 11
x1 = 0.1522 | 133.02 ± 13 | 133.71 ± 14 | 134.95 ± 14 | 135.91 ± 14 | 136.93 ± 14 | 138.01 ± 14 | 138.86 ± 14 | 139.78 ± 14 | 140.69 ± 14 | 141.55 ± 14
x1 = 0.2054 | 153.72 ± 16 | 154.58 ± 16 | 156.03 ± 16 | 157.22 ± 16 | 158.41 ± 16 | 159.6 ± 16 | 160.73 ± 16 | 161.92 ± 16 | 163.04 ± 16 | 164.03 ± 17
x1 = 0.219 | 149.69 ± 15 | 150.59 ± 15 | 151.97 ± 15 | 153.29 ± 15 | 154.54 ± 16 | 155.79 ± 16 | 156.96 ± 16 | 158 ± 16 | 159.04 ± 16 | 160.08 ± 16
x1 = 0.2438 | 159.53 ± 16 | 160.5 ± 16 | 161.93 ± 16 | 163.21 ± 16 | 164.56 ± 17 | 165.91 ± 17 | 167.26 ± 17 | 168.39 ± 17 | 169.59 ± 17 | 170.72 ± 17
x1 = 0.2754 | 165.68 ± 17 | 166.67 ± 17 | 168.15 ± 17 | 169.64 ± 17 | 170.96 ± 17 | 172.28 ± 17 | 173.51 ± 17 | 174.92 ± 18 | 176.15 ± 18 | 177.39 ± 18
